Like-named read-outs stand apart in the source and are kept apart here. [ ]: non-standard residue; d: D form. Dap = NC[C@H](N)C(=O)O
What was measured:
[1] = tested on: MASP-2; assay: recombinant catalytic fragment of human MASP-2; details: up to 1 h
[2] = tested on: MASP-1; details: cited from earlier work
[3] = tested on: MASP-2; details: cited from earlier work
[4] = tested on: trypsin; details: fold more potent than tested SFMI2 variants; cited from earlier work

| Substance | cleaved bond [1] | MASP-1 inhibition [2] | MASP-2 inhibition [3] | MASP-2 inhibition ([3]; listed as wild-type SFTI) | potency on trypsin relative to SFMI2 variants [4] |
| --- | --- | --- | --- | --- | --- |
| Ac-GY[Dap]SRSYPPVCIPD-NH2 | Arg5-Ser6, 1 h | – | – | – | – |
| HELM PEPTIDE1{[ac].G.Y.C.S.R.S.Y.P.P.V.C.I.P.D.[am]}$PEPTIDE1,PEPTIDE1,4:R3-12:R3$$$V2.0 (SMILES CC[C@H](C)[C@H](NC(=O)[C@@H]1CSSC[C@H](NC(=O)[C@H](Cc2ccc(O)cc2)NC(=O)CNC(C)=O)C(=O)N[C@@H](CO)C(=O)N[C@@H](CCCNC(=N)N)C(=O)N[C@@H](CO)C(=O)N[C@@H](Cc2ccc(O)cc2)C(=O)N2CCC[C@H]2C(=O)N2CCC[C@H]2C(=O)N[C@@H](C(C)C)C(=O)N1)C(=O)N1CCC[C@H]1C(=O)N[C@@H](CC(=O)O)C(N)=O) | Arg5-Ser6, 1 h | – | – | – | – |
| SFTI: 14-amino acid sunflower trypsin inhibitor, smallest natural canonical trypsin inhibitor, cyclic | – | does not inhibit the MASPs | does not inhibit the MASPs | does not inhibit MASP-2 at all | about 1000 fold |

— PMC9016712 (ACS Chemical Biology, 2022)
